Measurements taken from patent publication US8637521B2, “Substituted piperazin-2,5-diones and their use as multifunctional bioactive compounds” (priority 2006, dated 2014).
Where “and” joins values, the source holds several entries; their conditions need not be identical. Equal values may be shown once.

Legend:
[1] = test system: CFU-S population in the bone marrow; assay: Spleen colony formation (CFU-S) by bone marrow cells of peptide-treated intact donor mice; assay type: in vivo, (CBA×C57 B1) F1 mice; conditions: for Colony count CFU-8 - S per 10^5 cells M ± M: control 11.2 ± 0.4; for Colony count CFU-8 - S per 10^5 cells M ± m: control 9.9 ± 0.7
Protocol: The effect of tested substances on intact bone marrow was studied in vivo. […] Two days after administration of preparation, the mice were killed. Bone marrow suspension was prepared and injected intravenously to lethally irradiated mice. The colony forming activity was evaluated at day 8. Test animals were (CBA×C57 B1) F1 mice (30 mice per trial, average from 3 tests).

Anti-OVA antibody titers = assay: Adjuvant activity, anti-OVA antibody titers by ELISA (Example 8); assay type: in vivo, Balb/c mice; conditions: for Anti-protein antibody titer (pooled sera) / Stimulation index / Anti-protein antibody titer (for individual sera): Table 7
Protocol: Adjuvant activity was tested on 11 groups of Balb/c mice (obtained from Stolbovaya Breeding Station). Each group consisted of 7 animals. Three immunizations were performed as follows:
• Group 1—ovalbumin 25 micrograms per animal (Mouse Nos. 1 to 7) • Group 2—ovalbumin 25 micrograms per animal+CFA (Complete Freund's adjuvant) (Mouse Nos. 8 to 14) • Group 3—ovalbumin 25 micrograms per animal+adjuvant of compound 33a 100 micrograms per animal (Mouse Nos. 15 to 21) • Group 4—ovalbumin 25 micrograms per animal+adjuvant of compound 33a 10 micrograms per animal (Mouse Nos. […]) • Group 5—ovalbumin 25 micrograms per animal+adjuvant of compound 33a 1 microgram per animal (Mouse Nos. […]) • Group 6—ovalbumin 25 micrograms per animal+adjuvant of compound 33b 100 micrograms per animal (No. 36 to 42) • Group 7—ovalbumin 25 micrograms per animal+adjuvant of compound 33b 10 micrograms per animal (Mouse Nos. 43 to 49) • Group 8—ovalbumin 25 micrograms per animal+adjuvant of compound 33b 1 microgram per animal (Mouse Nos. 50 to 56) • Group 9—ovalbumin 25 micrograms per animal+adjuvant of compound 17 100 micrograms per animal (Mouse Nos. 57 to 63) • Group 10—ovalbumin 25 micrograms per animal+adjuvant of compound 1710 micrograms per animal (Mouse Nos. 64 to 70) • Group 11—ovalbumin 25 micrograms per animal+adjuvant of compound 171 microgram per animal (Mouse Nos. 71 to 77) Second Immunization:
The same set 14 days after first immunization by injection of 12.5 micrograms of ovalbumin/mouse to mouse nos. 1 to 77.
The same set 28 days after first immunization by injection of 12.5 micrograms of ovalbumin/mouse to mouse nos. 1 to 77.
On day 35 after first immunization, blood samples from each mouse were collected.
OVA (10 micrograms/ml) solution in 0.05 M sodium carbonate buffer (pH 9.5) was added to plate wells, 0.1 ml per well and incubated at 4° C. for 16 hours. The OVA solution was then removed and the plate was washed 4 times with PBS containing 0.05% Tween-20. Such washing was performed after each incubation stage. Serial twofold dilutions of sera (starting from 1:100 or 1:1000) were added to the wells, 0.1 ml per well and incubated at 37° C. for 1 hour followed by incubation (1 hour, 37° C.) with HRP-conjugated goat anti-mouse IgG antibodies (0.1 ml, 1 mg/ml in PBS) and then with a 0.1 mL substrate solution −0.05% H2O2 and 0.05% o-phenylene diamine in 0.05M sodium citrate buffer with a pH of 4.5. The reaction was stopped by adding 100 μl of 12.5% H2SO4. Absorbance was measured at a wavelength of 492 nm using a Multiscan Plus MKII (Flow Laboratories, Great Britain). Significant anti-protein antibody titer (for individual sera) was assessed as the serum dilution produced an absorbance value of more than 0.1 ODU and the minimum exceeds three times the control level. The antibody titer was presented and −log of dilution (FIGS. 2 and 3). The stimulation index for pooled sera was calculated by dividing the test pooled sera dilution producing OD=1 by the dilution of pooled sera from mice immunized without the adjuvant, producing OD=1. The results of the adjuvant activities of cyclo-L-Ala-L-Glu-(L-Trp-OH) (Compound 17), cyclo-L-Lys(N-acetyl-Glycosamine-N-acetyl-muramil)-L-Glu-(L-Trp-OH) (Compound 33a) and cyclo-D-Lys(N-acetyl-Glycosamine-N-acetyl-muramil)-D-Glu-(L-Trp-OH) (Compound 33b) are shown in Table 7 and the adjuvant activities of cyclo [L-Lys(Palmitoyil)-L-Glu(D-Trp-OH)] (Compound 26a) and cyclo [D-Lys(Palmitoyil)-D-Glu(D-Trp-OH)] (Compound 26b) are shown in Table 8 as well as in FIG. 4 which includes the results of the adjuvant activities of cyclo-L-Lys-L-Glu-(L-Trp-OH) (compound 19). It is noted that the peptides of compounds 26a and 26b are soluble in 0.1% NH4OH at a concentration of 1 mg per 1 to 2 ml.

[2] = Table 3, 0.2 microgram per mouse per os
[3] = 100 μg per animal, no adjuvant 4.5
[4] = 100 μg per animal, no adjuvant = 1
[5] = OVA + adjuvant 1 μg per animal, −log of dilution
[6] = OVA + adjuvant 10 μg per animal, −log of dilution
[7] = OVA + adjuvant 100 μg per animal, titer as −log of dilution, one value per mouse

CC1NC(=O)C(CCC(=O)NC(Cc2c[nH]c3ccccc23)C(=O)[O-])NC1=O.[Na+] (centres unmarked) [cyclo-LAla-LGlu-(DTrp-ONa)]
% suppression ([1]; Table 2, donor treated i/p): 20%
Colony count CFU-8 - S per 10^5 cells M ± M ([1]; Table 2, donor treated i/p, colonies day 8): 8.8 ± 0.2 per 10^5 cells

O=C(CCC1NC(=O)C(Cc2ccc(O)cc2)NC1=O)NC(Cc1c[nH]c2ccccc12)C(=O)O (centres unmarked) [cyclo-DTyr-DGlu-(DTrp-OH)]
% suppression ([1]; Table 2, donor treated per os): 44%
Colony count CFU-8 - S per 10^5 cells M ± M ([1]; Table 2, donor treated per os): 6.3 ± 0.9 per 10^5 cells

COC(=O)[C@@H](Cc1c[nH]c2ccccc12)NC(=O)CC[C@H]1NC(=O)[C@@H](C)NC1=O [Compound 1, Cyclo-D-Ala-D-Glu-(D-Trp-OMe)]
% suppression ([1]; Table 2, donor treated per os): 40%
Colony count CFU-8 - S per 10^5 cells M ± M ([1]; Table 2, donor treated per os): 7.4 ± 0.4 per 10^5 cells
% suppression ([1]; Table 2, donor treated s/c): 47%
Colony count CFU-8 - S per 10^5 cells M ± M ([1]; Table 2, donor treated s/c): 6.8 ± 0.4 per 10^5 cells
% suppression [1, 2]: 42%
Colony count CFU-8 - S per 10^5 cells M ± m [1, 2]: 6.5 ± 0.5 per 10^5 cells

CC(=O)N[C@H]1[C@H](O[C@H]2[C@H](O[C@H](C)C(=O)NCCCC[C@@H]3NC(=O)[C@H](CCC(=O)N[C@@H](Cc4c[nH]c5ccccc45)C(=O)O)NC3=O)[C@@H](NC(C)=O)C(O)O[C@@H]2CO)O[C@H](CO)[C@@H](O)[C@@H]1O (stereo partly drawn) [Compound 33a, cyclo-L-Lys(N-acetyl-Glycosamine-N-acetyl-muramil)-L-Glu-(L-Trp-OH)]
adjuvant activity (FIG. 4), doses at which active (Anti-OVA antibody titers): active at 100 μg/kg
Anti-protein antibody titer (pooled sera) (Anti-OVA antibody titers; 1 μg per animal): 4.8
Stimulation index (Anti-OVA antibody titers; 1 μg per animal): 2.9
Anti-protein antibody titer (pooled sera) (Anti-OVA antibody titers; 10 μg per animal): 5.1
Stimulation index (Anti-OVA antibody titers; 10 μg per animal): 3.5
Anti-protein antibody titer (pooled sera) (Anti-OVA antibody titers; [3]): 5.5
Stimulation index (Anti-OVA antibody titers; [4]): 6.8
Anti-protein antibody titer (for individual sera) (Anti-OVA antibody titers; [5]): 5.1 (2×) and 4.2 and 5.4 (3×) and 4.1
Anti-protein antibody titer (for individual sera) (Anti-OVA antibody titers; [6]): 4.4 and 5.7 (4×) and 4.7 and 5.4
Anti-protein antibody titer (for individual sera) (Anti-OVA antibody titers; [7]): 4.8 (2×) and 5.4 and 5.1 (2×) and 6.4 and 5.7

C[C@H]1NC(=O)[C@@H](CC(=O)N[C@H](Cc2c[nH]c3ccccc23)C(=O)O)NC1=O [Compound 13, Cyclo-D-Ala-D-Asp-(D-Trp-OH)]
% suppression ([1]; Table 2, donor treated per os): 26.5%
Colony count CFU-8 - S per 10^5 cells M ± M ([1]; Table 2, donor treated per os): 9.0 ± 0.2 per 10^5 cells

COC(=O)[C@@H](Cc1c[nH]c2ccccc12)NC(=O)C[C@H]1NC(=O)[C@@H](C)NC1=O [Compound 12, Cyclo-D-Ala-D-Asp-(D-Trp-OMe)]
% suppression [1, 2]: 28%
Colony count CFU-8 - S per 10^5 cells M ± m [1, 2]: 8.4 ± 0.6 per 10^5 cells

CC(=O)N[C@H]1[C@H](O[C@H]2[C@H](O[C@H](C)C(=O)NCCCC[C@H]3NC(=O)[C@@H](CCC(=O)N[C@@H](Cc4c[nH]c5ccccc45)C(=O)O)NC3=O)[C@@H](NC(C)=O)C(O)O[C@@H]2CO)O[C@H](CO)[C@@H](O)[C@@H]1O (stereo partly drawn) [Compound 33b, cyclo-D-Lys(N-acetyl-Glycosamine-N-acetyl-muramil)-D-Glu-(L-Trp-OH)]
adjuvant activity (FIG. 4), doses at which active (Anti-OVA antibody titers): not an active compound
Anti-protein antibody titer (pooled sera) (Anti-OVA antibody titers; 1 μg per animal): 5.1
Stimulation index (Anti-OVA antibody titers; 1 μg per animal): 3.5
Anti-protein antibody titer (pooled sera) (Anti-OVA antibody titers; 10 μg per animal): 5.4
Stimulation index (Anti-OVA antibody titers; 10 μg per animal): 4.1
Anti-protein antibody titer (pooled sera) (Anti-OVA antibody titers; [3]): 4.8
Stimulation index (Anti-OVA antibody titers; [4]): 2.9
Anti-protein antibody titer (for individual sera) (Anti-OVA antibody titers; [5]): 5.2 and 4.8 (4×) and 4.5 and 5.1
Anti-protein antibody titer (for individual sera) (Anti-OVA antibody titers; [6]): 4.8 and 4.5 and 5.2 and 5.1 and 5.4 (2×) and 4.3
Anti-protein antibody titer (for individual sera) (Anti-OVA antibody titers; [7]): 4.8 and 5.4 (3×) and 4.2 and 5.1 (2×)

O=C(CCC1NC(=O)C(Cc2ccc(O)cc2)NC1=O)NC(Cc1c[nH]c2ccccc12)C(=O)[O-].[Na+] (centres unmarked) [cyclo-DTyr-DGlu-(DTrp-ONa)]
% suppression [1, 2]: 44%
Colony count CFU-8 - S per 10^5 cells M ± m [1, 2]: 6.3 ± 0.9 per 10^5 cells

O=C(CC[C@H]1NC(=O)[C@@H](Cc2ccccc2)NC1=O)N[C@H](Cc1c[nH]c2ccccc12)C(=O)[O-].[Na+] [cyclo-DPhe-DGlu-(DTrp-ONa)]
% suppression ([1]; Table 2, donor treated per os): 28%
Colony count CFU-8 - S per 10^5 cells M ± M ([1]; Table 2, donor treated per os): 8.1 ± 0.4 per 10^5 cells
% suppression [1, 2]: 28%
Colony count CFU-8 - S per 10^5 cells M ± m [1, 2]: 8.1 ± 0.4 per 10^5 cells

NCCCCC1NC(=O)C(CCC(=O)NC(Cc2c[nH]c3ccccc23)C(=O)O)NC1=O [Compound 19, cyclo-L-Lys-L-Glu-(L-Trp-OH)]
adjuvant activity (FIG. 4), doses at which active (Anti-OVA antibody titers): active at 100 μg/kg
